# ChEMBL document CHEMBL5360542, “Current development of β-carboline derived potential antimalarial scaffolds” (Eur J Med Chem, 2023)
# pIC50: −log10 of the molar value.
# Assays:
# Type in all cases: functional, organism-based
# Plasmodium falciparum [1] = test: Antimalarial activity against Plasmodium falciparum 3D7 infected in human A positive erythrocytes assessed as reduction in parasite growth incubated for 24 hrs by [3H]hypoxanthine based scintillation counting analysis; conditions: 3D7, Erythrocyte
# Plasmodium falciparum [2] = test: Antimalarial activity against chloroquine-resistant Plasmodium falciparum K1 infected in human A positive erythrocytes assessed as reduction in parasite growth incubated for 24 hrs by [3H]hypoxanthine based scintillation counting analysis; conditions: K1, Erythrocyte
# Plasmodium falciparum [3] = test: Antimalarial activity against Plasmodium falciparum 3D7 infected in erythrocytes assessed as inhibition of parasite growth incubated for 48 hrs by SYBR-Green I fluorescence-based assay; conditions: 3D7, Erythrocyte
# Plasmodium falciparum [4] = test: Antimalarial activity against Plasmodium falciparum INDO infected in erythrocytes assessed as inhibition of parasite growth incubated for 48 hrs by SYBR-Green I fluorescence-based assay; conditions: Erythrocyte
# Plasmodium falciparum [5] = test: Antimalarial activity against chloroquine-resistant Plasmodium falciparum FcB1 assessed as inhibition of parasite growth
# Plasmodium falciparum [6] = test: Antiplasmodial activity against chloroquine-sensitive erythrocyte stage Plasmodium falciparum 3D7 assessed as inhibition of parasite growth incubated for 3 days by ELISA; conditions: 3D7, Erythrocyte, 72 h
# Plasmodium falciparum [7] = test: Antiplasmodial activity against chloroquine-resistant erythrocyte stage Plasmodium falciparum Dd2 assessed as inhibition of parasite growth incubated for 3 days by ELISA; conditions: 72 h
# Plasmodium falciparum [8] = test: Antimalarial activity against chloroquine-resistant Plasmodium falciparum K1 assessed as reduction in parasite growth incubated for 72 hrs by ELISA; conditions: K1, 72 h
# Plasmodium falciparum [9] = test: Antimalarial activity against chloroquine-sensitive Plasmodium falciparum 3D7 assessed as reduction in parasite growth
# Plasmodium falciparum [10] = test: Antimalarial activity against chloroquine-resistant Plasmodium falciparum K1 assessed as reduction in parasite growth
# Plasmodium falciparum [11] = test: Antimalarial activity against chloroquine-resistant Plasmodium falciparum W2 transfected in human type A-positive RBC cells assessed reduction in parasite growth by measuring LDH activity incubated for 72 hrs by spectrophotometric analysis
# Plasmodium falciparum [12] = test: Antimalarial activity against chloroquine-sensitive Plasmodium falciparum D10 transfected in human type A-positive RBC cells assessed reduction in parasite growth by measuring LDH activity incubated for 72 hrs by spectrophotometric analysis
# Plasmodium falciparum [13] = test: Antimalarial activity against chloroquine-resistant Plasmodium falciparum K1
# Plasmodium falciparum [14] = test: Antiplasmodial activity against multi-resistant Plasmodium falciparum W2 infected in erythrocytes assessed as inhibition of parasite growth incubated for 48 hrs by flow cytometry; conditions: W2, Erythrocyte
# [15] = Plasmodium falciparum, W2, Erythrocyte, 72 h
# [16] = Plasmodium falciparum, D10, Erythrocyte, 72 h
smiles,measurement,setting,value
Clc1ccc2[nH]c3c(NCCN4CCOCC4)nccc3c2c1,pIC50,Plasmodium falciparum [1],5.63
same,pIC50,Plasmodium falciparum [2],5.31
CCOC(=O)c1cc2c([nH]c3ccccc32)c(-c2ccc(NS(=O)(=O)c3ccc(C)cc3)cc2)n1,pIC50,Plasmodium falciparum [3],5.43
same,pIC50,Plasmodium falciparum [4],5.72
CCOC(=O)c1cc2c([nH]c3ccccc32)c(-c2ccc(NC(=O)C(C)(C)C)cc2)n1,pIC50,Plasmodium falciparum [3],5.46
same,pIC50,Plasmodium falciparum [4],5.62
c1ccc2c(CC3NCCc4c3[nH]c3ccccc43)c[nH]c2c1 (stereo unspecified),pIC50,Plasmodium falciparum [5],5.02
C/C(=C\c1ccccc1)C(=O)NCCOc1ccc2c(c1)[nH]c1c(C)nccc12,pIC50,Plasmodium falciparum [6],5.17
same,pIC50,Plasmodium falciparum [7],4.71
CC#CCN1CCc2c([nH]c3ccccc23)C1CC(=O)OCC (stereo unspecified),pIC50,Plasmodium falciparum [8],4.86
COC(=O)c1cc2c3ccccc3n3c2c(n1)C(c1ccccc1)OC(C)=C3 (stereo unspecified),pIC50,Plasmodium falciparum [9],< 5.30
same,pIC50,Plasmodium falciparum [10],< 5.30
COC(=O)c1cc2c3ccccc3n3c2c(n1)COC(C)=C3,pIC50,Plasmodium falciparum [9],< 5.30
CCOC(=O)c1cc2c([nH]c3ccccc32)c(-c2ccc(/N=C(/Nc3ccc(OC(F)(F)F)cc3)NC3CC3)cc2)n1,pIC50,Plasmodium falciparum [3],6.00
same,pIC50,Plasmodium falciparum [4],6.11
CCOC(=O)CC1c2c(c3ccccc3n2C(=O)OC(C)(C)C)CCN1C(=O)OCc1ccccc1 (stereo unspecified),pIC50,Plasmodium falciparum [8],4.81
Clc1ccc2[nH]c3c(N4CCC(N5CCOCC5)CC4)nccc3c2c1,pIC50,Plasmodium falciparum [1],5.27
same,pIC50,Plasmodium falciparum [2],5.72
COc1ccc2c3ccnc(C)c3n(CCNC(=O)/C=C/c3ccc(Cl)cc3)c2c1,pIC50,Plasmodium falciparum [6],7.40
same,pIC50,Plasmodium falciparum [7],6.77
O=C(NCCCN1CCOCC1)C1Cc2c([nH]c3ccccc23)C(c2ccc(Cl)cc2)N1 (stereo unspecified),pIC50,Plasmodium falciparum [11]; [15],5.21
same,pIC50,Plasmodium falciparum [12]; [16],4.94
CCOC(=O)CC1c2[nH]c3ccccc3c2CCN1S(=O)(=O)c1ccc(C)cc1 (stereo unspecified),pIC50,Plasmodium falciparum [8],4.86
Clc1ccc2[nH]c3c(NCCCn4ccnc4)nccc3c2c1,pIC50,Plasmodium falciparum [1],6.35
same,pIC50,Plasmodium falciparum [2],6.04
CCC1NC(C(=O)NC23CC4CC(CC(C4)C2)C3)Cc2c1[nH]c1ccccc21 (stereo unspecified),pIC50,Plasmodium falciparum [11]; [15],4.94
same,pIC50,Plasmodium falciparum [12]; [16],5.01
COC(=O)c1cc2c3cc(Cl)ccc3n3c2c(n1)COC(C)=C3,pIC50,Plasmodium falciparum [9],5.75
same,pIC50,Plasmodium falciparum [10],5.61
Cc1nccc2c1[nH]c1cc(OCCNC(=O)/C=C/c3ccccc3F)ccc12,pIC50,Plasmodium falciparum [6],6.03
same,pIC50,Plasmodium falciparum [7],5.41
COC(=O)C1Cc2c([nH]c3ccccc23)C(Cc2c[nH]c3ccccc23)N1 (stereo unspecified),pIC50,Plasmodium falciparum [5],4.76
CCOC(=O)c1cc2c([nH]c3ccccc32)c(-c2ccc(/N=C(/Nc3ccc(OC)cc3)NC3CC3)cc2)n1,pIC50,Plasmodium falciparum [3],5.12
same,pIC50,Plasmodium falciparum [4],5.92
CC(C)(C)OC(=O)n1c2c(c3ccccc31)CCN(C(=O)OCc1ccccc1)C2CCO (stereo unspecified),pIC50,Plasmodium falciparum [13],4.67
CCOC(=O)c1cc2c([nH]c3ccccc32)c(-c2ccc(NC(=S)Nc3ccc(OC(F)(F)F)cc3)cc2)n1,pIC50,Plasmodium falciparum [3],4.73
same,pIC50,Plasmodium falciparum [4],6.41
CCN(CC)CCCC(C)Nc1nccc2c1[nH]c1ccc(Cl)cc12 (stereo unspecified),pIC50,Plasmodium falciparum [1],6.77
same,pIC50,Plasmodium falciparum [2],6.62
Cc1nccc2c1[nH]c1cc(OCCNC(=O)/C=C/c3ccc(Cl)cc3)ccc12,pIC50,Plasmodium falciparum [6],6.49
same,pIC50,Plasmodium falciparum [7],6.40
Cc1nccc2c1[nH]c1cc(OCCNC(=O)/C=C/c3ccc(F)cc3)ccc12,pIC50,Plasmodium falciparum [6],6.82
same,pIC50,Plasmodium falciparum [7],6.16
Cc1nccc2c1[nH]c1cc(OCCNC(=O)/C=C/c3ccccc3)ccc12,pIC50,Plasmodium falciparum [6],6.01
same,pIC50,Plasmodium falciparum [7],5.33
CC(C)(C)CC(C)(C)NC(=O)C1Cc2c([nH]c3ccccc23)C(c2ccc(Cl)cc2)N1 (stereo unspecified),pIC50,Plasmodium falciparum [11]; [15],5.19
same,pIC50,Plasmodium falciparum [12]; [16],5.08
C/C=C\CC1OC(C)=Cn2c3ccccc3c3cc(C(=O)OC)nc1c32 (stereo unspecified),pIC50,Plasmodium falciparum [9],< 5.30
COc1ccc2c3ccnc(C)c3n(CCNC(=O)/C=C/c3ccccc3)c2c1,pIC50,Plasmodium falciparum [6],6.31
same,pIC50,Plasmodium falciparum [7],5.95
C=C(C#N)C1OC(C)=Cn2c3ccccc3c3cc(C(=O)OC)nc1c32 (stereo unspecified),pIC50,Plasmodium falciparum [9],< 5.30
CC#CCN1CCc2c(n(C(=O)OC(C)(C)C)c3ccccc23)C1CC(=O)OCC (stereo unspecified),pIC50,Plasmodium falciparum [13],4.53
C=CCC1OC(C)=Cn2c3ccc(Cl)cc3c3cc(C(=O)OC)nc1c32 (stereo unspecified),pIC50,Plasmodium falciparum [9],< 5.30
same,pIC50,Plasmodium falciparum [10],< 5.30
CCOC(=O)c1cc2c([nH]c3ccccc32)c(-c2ccc(NC(=S)Nc3ccc(OC)cc3)cc2)n1,pIC50,Plasmodium falciparum [3],5.80
same,pIC50,Plasmodium falciparum [4],5.74
Fc1ccc2[nH]c3c(NCCCn4ccnc4)nccc3c2c1,pIC50,Plasmodium falciparum [1],6.70
same,pIC50,Plasmodium falciparum [2],6.39
N#Cc1ccc(C2NCCc3c2[nH]c2ccccc32)cc1 (stereo unspecified),pIC50,Plasmodium falciparum [14],5.96
O=C(NC1CCCCC1)C1Cc2c([nH]c3ccccc23)C(c2ccc(Cl)cc2)N1 (racemic; form 1),pIC50,Plasmodium falciparum [11]; [15],4.87
same,pIC50,Plasmodium falciparum [12]; [16],4.79
O=C(NC1CCCCC1)C1Cc2c([nH]c3ccccc23)C(c2ccc(Cl)cc2)N1 (racemic; form 2),pIC50,Plasmodium falciparum [11]; rbc,5.04
same,pIC50,Plasmodium falciparum [12]; rbc,4.90
Nc1nccc(-c2nccc3c2[nH]c2ccccc23)n1 [ANNOMONTINE],pIC50,Plasmodium falciparum [3],5.46
same,pIC50,Plasmodium falciparum [4],5.51
O=C(c1c[nH]c2ccc(O)cc12)c1nccc2c1[nH]c1ccc(O)cc12 [HYRTIOSULAWESINE],pIC50,Plasmodium falciparum [5],5.89
